Read-outs that look alike come from different tables or passages of the source.
Legend:
rat nNOS = molecular target: T1, rat nNOS (Rattus norvegicus, UniProt P29476); assay: NOS inhibition, oxyhemoglobin (hemoglobin capture) test, recombinant nNOS; assay type: biochemical; conditions: recombinant enzyme, 10 µM arginine, triplicate, NI = <50% inhibition at 100 μM
T1 construct: Full-length recombinant rat nNOS, mouse iNOS, bovine eNOS; made in house; host or cells: Escherichia coli
Experimental: (§1) The inhibitory effects of all compounds against the three recombinant NOSs (rat nNOS, mouse iNOS, and bovine eNOS) were evaluated in 96-well plates using the oxyhemoglobin test. A first screening at 100 and 10 μM was performed, and the IC50 values were measured for compounds showing more than 50% inhibition at 100 μM (Table 1 and Table 2).
(§2) Full-length recombinant rat nNOS, mouse iNOS, bovine eNOS, and the heme domains of rat brain nNOS and mouse iNOS were expressed in Escherichia coli and purified as described previously.
(§3) NOS catalytic activity was measured using the hemoglobin capture assay. The test was performed at 30 °C in 96-well microplates using a final volume of 200 µL. The assay mixture contained 100 µM NADPH, 10 µM BH4, 6 µM HbO2, 100 µM DTT, 5 µM FAD, 5 µM FMN, 10 µM (nNOS and eNOS), or 20 µM (iNOS) arginine, all in a 100 mM Hepes buffer, pH 7.5, and, for constitutive n- and e-NOS, 10 µg/mL calmodulin, and 1 mM CaCl2. The studied compounds were introduced as 2 μL of ×100 concentrated solutions in DMSO, and the control experiments were performed with DMSO or the buffer only. The kinetics of NO production were measured at 401 nm using an Infinite F500 microplate reader (Tecan, Singapore).

mouse iNOS [1] = molecular target: T2, mouse iNOS (Mus musculus, UniProt P29477); assay: NOS inhibition, oxyhemoglobin (hemoglobin capture) test, recombinant iNOS; assay type: biochemical; conditions: recombinant enzyme, 20 µM arginine, triplicate, NI = <50% inhibition at 100 μM
T2 construct: Full-length recombinant rat nNOS, mouse iNOS, bovine eNOS; made in house; host or cells: Escherichia coli
T2 sequence (P29477 1-1144): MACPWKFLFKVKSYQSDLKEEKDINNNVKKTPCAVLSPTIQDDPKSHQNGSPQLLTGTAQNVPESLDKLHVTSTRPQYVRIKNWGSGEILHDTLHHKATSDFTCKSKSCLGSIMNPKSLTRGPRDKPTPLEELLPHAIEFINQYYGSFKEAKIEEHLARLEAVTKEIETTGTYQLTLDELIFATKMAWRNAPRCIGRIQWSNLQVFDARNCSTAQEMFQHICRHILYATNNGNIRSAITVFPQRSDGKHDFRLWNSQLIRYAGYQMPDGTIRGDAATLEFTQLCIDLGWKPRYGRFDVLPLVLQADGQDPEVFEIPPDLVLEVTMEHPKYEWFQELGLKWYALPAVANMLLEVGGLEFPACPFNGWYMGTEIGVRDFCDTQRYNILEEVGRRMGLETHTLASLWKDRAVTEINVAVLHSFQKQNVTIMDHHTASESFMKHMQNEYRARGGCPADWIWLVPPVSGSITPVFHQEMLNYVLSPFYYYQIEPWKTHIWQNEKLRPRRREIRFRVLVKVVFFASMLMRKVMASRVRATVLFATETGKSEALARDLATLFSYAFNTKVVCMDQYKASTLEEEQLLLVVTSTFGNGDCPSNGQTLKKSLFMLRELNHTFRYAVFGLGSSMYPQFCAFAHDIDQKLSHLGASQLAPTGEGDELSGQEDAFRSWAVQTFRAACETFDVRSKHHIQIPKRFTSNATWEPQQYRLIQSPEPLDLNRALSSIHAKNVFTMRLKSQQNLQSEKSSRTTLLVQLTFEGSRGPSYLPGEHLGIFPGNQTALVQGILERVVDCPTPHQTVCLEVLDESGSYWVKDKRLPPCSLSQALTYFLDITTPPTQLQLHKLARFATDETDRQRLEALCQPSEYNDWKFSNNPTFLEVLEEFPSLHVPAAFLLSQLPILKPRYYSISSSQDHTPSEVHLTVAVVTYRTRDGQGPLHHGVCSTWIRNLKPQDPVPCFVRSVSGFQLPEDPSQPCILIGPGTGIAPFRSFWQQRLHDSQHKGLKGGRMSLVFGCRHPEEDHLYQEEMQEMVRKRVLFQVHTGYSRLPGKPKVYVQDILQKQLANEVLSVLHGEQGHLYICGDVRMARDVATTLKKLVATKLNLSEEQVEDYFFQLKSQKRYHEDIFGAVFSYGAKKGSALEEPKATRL
Experimental: as §1, §2, §3

bovine eNOS = molecular target: T3, bovine eNOS (Bos taurus, UniProt P29473); assay: NOS inhibition, oxyhemoglobin (hemoglobin capture) test, recombinant eNOS; assay type: biochemical; conditions: recombinant enzyme, 10 µM arginine, triplicate, NI = <50% inhibition at 100 μM, read-out: IC50 (μM) eNOS (Bovine)
T3 construct: Full-length recombinant rat nNOS, mouse iNOS, bovine eNOS; made in house; host or cells: Escherichia coli
Experimental: The inhibitory effects of all compounds against the three recombinant NOSs (rat nNOS, mouse iNOS, and bovine eNOS) were evaluated in 96-well plates using the oxyhemoglobin test [53].
NOS catalytic activity was measured using the hemoglobin capture assay [53]. The test was performed at 30 °C in 96-well microplates using a final volume of 200 µL. The assay mixture contained 100 µM NADPH, 10 µM BH4, 6 µM HbO2, 100 µM DTT, 5 µM FAD, 5 µM FMN, 10 µM (nNOS and eNOS), or 20 µM (iNOS) arginine, all in a 100 mM Hepes buffer, pH 7.5, and, for constitutive n- and e-NOS, 10 µg/mL calmodulin, and 1 mM CaCl2. The studied compounds were introduced as 2 μL of ×100 concentrated solutions in DMSO, and the control experiments were performed with DMSO or the buffer only. The kinetics of NO production were measured at 401 nm using an Infinite F500 microplate reader (Tecan, Singapore).

RAW 264.7 cells [2] = assay: Cell viability, MTT assay; assay type: cell-based, murine
Experimental: Cell viability was evaluated in the murine macrophage RAW 264.7 cells using an MTT assay for compounds 18, 21, 26, and 30. This experiment was performed without or with LPS (1 µg/mL), which induces iNOS expression (Figure S1). […] Compound 30 only killed 20% of the cells at 500 μM (Figure S1A). In the presence of LPS (1 µg/mL), cell viability was reduced by 30% due to the inhibition by NO of key enzymes involved in cell metabolism (Figure S1B).
The macrophage cell line RAW 264.7 (a gift from Dr. A. Blangy, Montpellier, France) was cultured in Dulbecco’s Modified Eagle’s Medium (DMEM) supplemented with 10% FCS, 100 units/mL penicillin, 100 µg/mL streptomycin, and 2 mM L-glutamine.
(§4) Cellular NO production was measured using the Griess reagent (Sigma-Aldrich), which evaluates the nitrite content in culture media. Cellular toxicity was estimated by the MTT assay (Sigma-Aldrich) in RAW 264.7 cells after the induction (or not) of iNOS by LPS, according to the manufacturer’s recommendations.

iNOS in RAW 264.7 cells = molecular target: T4, iNOS in RAW 264.7 cells (Mus musculus, UniProt P29477); assay: Inhibition of NO production (nitrite, Griess) in LPS-stimulated cells; assay type: cell-based, murine; conditions: RAW264.7; RAW 264.7, LPS 1 µg/mL, 100 μM compound; read-out: Inhibition of intracellular NO production
T4 construct: In RAW 264.7 cells, iNOS was induced by LPS (1 µg/mL, Sigma-Aldrich) for 24 h; endogenous in cells; host or cells: RAW 264.7 murine macrophages, LPS-induced
Experimental: We evaluated the ability of selected compounds (dipeptides 7, 8, and 21 and 1,2,4-oxadiazoles 30 and 40) to inhibit iNOS in RAW 264.7 cells (Figure 2), where iNOS was induced by LPS (1 µg/mL). iNOS activity was measured following LPS induction by quantifying nitrite accumulation in the supernatant. […] A similar result was previously reported.
In RAW 264.7 cells, iNOS was induced by LPS (1 µg/mL, Sigma-Aldrich) for 24 h. All studied compounds were incubated with cells during the last 24 h.
as §4

mouse iNOS [3] = assay: NOS inhibition, oxyhemoglobin (hemoglobin capture) test, recombinant iNOS; assay type: biochemical; conditions: from IC50 values
Experimental: as §1, §2, §3

nNOS = test system: nNOS; parameters: method as in PMID 14718923; conditions: cited from earlier work
eNOS = molecular target: eNOS; parameters: method as in PMID 14718923; conditions: read-out: Experimental Ki eNOS; cited from earlier work
RAW 264.7 cells [4] = test system: RAW 264.7 cells; parameters: method as in PMID 32027778; conditions: RAW 264.7, LPS; cited from earlier work
[5] = molecular target: T5, oxygenase domain of nNOS (nNOSoxy) (Rattus norvegicus, UniProt P29476); assay: UV-visible difference spectroscopy titration of nNOSoxy; assay type: binding; conditions: UV/Vis difference spectroscopy, ± SD, three experiments; read-out: Apparent equilibrium constant Ks nNOSoxy
T5 construct: the oxygenase domain of nNOS (nNOSoxy) and iNOS (iNOSoxy); made in house; host or cells: Escherichia coli
Description: (§5) We performed UV–visible difference spectroscopy to analyze the interaction mode of some inhibitors with the heme-active site of NOS [54]. We have studied the effects of dipeptide-like compounds 7, 17, 19, 23, and 27 and 1,2,4-oxadiazole 35 on the UV–visible spectra of the oxygenase domain of nNOS (nNOSoxy) and iNOS (iNOSoxy). As expected, when added stepwise to n- and iNOSoxy, all selected compounds elicited different spectra with a trough at ~425 nm and a peak at ~395 nm, similar to the substrate L-arginine. This profile is characteristic of type I interactions, meaning that they are bound in close proximity to the heme prosthetic group and shifted the spin state equilibrium to the pentacoordinated heme–Fe^III state. Double reverse plotting of the differences in absorbance between the peak at ~395 nm and valley at ~425 nm (ΔA395–425 nm) as a function of the concentration of the added compounds allowed calculating apparent binding constants (Ks) (Table 3). The reference inhibitor SEITU [55] tightly bound both NOS isoforms with high affinity but no selectivity. With the exception of the dipeptide-like 27 and the heterocyclic analog 35, which similarly interacted with both proteins, other compounds preferentially bound nNOSoxy over iNOSoxy with apparent affinities close to SEITU for this isoform.
as §2
(§6) This study was performed as previously described.

[6] = molecular target: T6, oxygenase domain of iNOS (iNOSoxy) (Mus musculus, UniProt P29477); assay: UV-visible difference spectroscopy titration of iNOSoxy; assay type: binding; conditions: UV/Vis difference spectroscopy, ± SD, three experiments; read-out: Apparent equilibrium constant Ks iNOSoxy
T6 construct: the oxygenase domain of nNOS (nNOSoxy) and iNOS (iNOSoxy); made in house; host or cells: Escherichia coli
T6 sequence (P29477 1-498 limits assumed): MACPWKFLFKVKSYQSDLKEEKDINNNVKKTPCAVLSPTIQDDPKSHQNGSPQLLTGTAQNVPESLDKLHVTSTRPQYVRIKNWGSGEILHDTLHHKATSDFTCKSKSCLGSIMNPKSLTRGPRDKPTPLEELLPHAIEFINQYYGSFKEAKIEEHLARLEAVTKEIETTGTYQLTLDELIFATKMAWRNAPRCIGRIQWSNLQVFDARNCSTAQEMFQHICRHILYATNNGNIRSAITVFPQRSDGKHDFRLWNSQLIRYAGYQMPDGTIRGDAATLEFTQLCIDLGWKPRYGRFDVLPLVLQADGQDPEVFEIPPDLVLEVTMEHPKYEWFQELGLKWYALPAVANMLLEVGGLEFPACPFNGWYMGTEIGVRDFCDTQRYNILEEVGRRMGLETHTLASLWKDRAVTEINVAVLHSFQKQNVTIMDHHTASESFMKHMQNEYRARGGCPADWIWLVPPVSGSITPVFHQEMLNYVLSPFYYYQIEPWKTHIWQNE
Description: as §5, §2, §6

T3 sequence (P29473 whole entry): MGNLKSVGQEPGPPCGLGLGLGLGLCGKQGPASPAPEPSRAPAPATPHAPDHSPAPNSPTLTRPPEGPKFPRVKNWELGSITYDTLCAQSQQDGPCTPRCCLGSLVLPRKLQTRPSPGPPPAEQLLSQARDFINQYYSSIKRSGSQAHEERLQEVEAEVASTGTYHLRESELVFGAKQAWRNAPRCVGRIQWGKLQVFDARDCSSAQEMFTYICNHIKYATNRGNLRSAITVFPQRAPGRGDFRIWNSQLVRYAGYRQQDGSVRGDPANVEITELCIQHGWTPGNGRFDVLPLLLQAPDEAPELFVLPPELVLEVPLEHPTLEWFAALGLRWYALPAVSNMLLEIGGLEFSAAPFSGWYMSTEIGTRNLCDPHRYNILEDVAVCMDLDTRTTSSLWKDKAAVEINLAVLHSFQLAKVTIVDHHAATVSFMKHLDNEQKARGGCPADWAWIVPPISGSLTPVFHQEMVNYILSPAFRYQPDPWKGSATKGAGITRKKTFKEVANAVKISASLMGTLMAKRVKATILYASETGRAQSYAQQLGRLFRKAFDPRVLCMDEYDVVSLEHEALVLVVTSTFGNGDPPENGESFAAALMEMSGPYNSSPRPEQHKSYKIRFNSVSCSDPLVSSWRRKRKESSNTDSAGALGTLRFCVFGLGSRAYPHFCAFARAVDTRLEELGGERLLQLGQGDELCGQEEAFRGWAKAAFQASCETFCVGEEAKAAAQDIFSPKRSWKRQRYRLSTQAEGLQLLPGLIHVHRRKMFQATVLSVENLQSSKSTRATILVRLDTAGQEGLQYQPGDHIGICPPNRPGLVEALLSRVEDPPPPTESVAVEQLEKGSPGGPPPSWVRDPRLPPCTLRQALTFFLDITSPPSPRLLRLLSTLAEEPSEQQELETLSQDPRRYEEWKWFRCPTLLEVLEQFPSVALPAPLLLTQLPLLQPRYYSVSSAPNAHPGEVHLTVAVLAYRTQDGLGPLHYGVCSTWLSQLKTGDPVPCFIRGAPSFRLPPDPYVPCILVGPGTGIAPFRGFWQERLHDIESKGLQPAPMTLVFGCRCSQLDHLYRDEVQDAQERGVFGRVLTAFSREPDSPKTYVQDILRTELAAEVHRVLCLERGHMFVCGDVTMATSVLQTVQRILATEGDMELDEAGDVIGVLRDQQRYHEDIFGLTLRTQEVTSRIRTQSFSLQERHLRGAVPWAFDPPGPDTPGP
T1 sequence (P29476 whole entry): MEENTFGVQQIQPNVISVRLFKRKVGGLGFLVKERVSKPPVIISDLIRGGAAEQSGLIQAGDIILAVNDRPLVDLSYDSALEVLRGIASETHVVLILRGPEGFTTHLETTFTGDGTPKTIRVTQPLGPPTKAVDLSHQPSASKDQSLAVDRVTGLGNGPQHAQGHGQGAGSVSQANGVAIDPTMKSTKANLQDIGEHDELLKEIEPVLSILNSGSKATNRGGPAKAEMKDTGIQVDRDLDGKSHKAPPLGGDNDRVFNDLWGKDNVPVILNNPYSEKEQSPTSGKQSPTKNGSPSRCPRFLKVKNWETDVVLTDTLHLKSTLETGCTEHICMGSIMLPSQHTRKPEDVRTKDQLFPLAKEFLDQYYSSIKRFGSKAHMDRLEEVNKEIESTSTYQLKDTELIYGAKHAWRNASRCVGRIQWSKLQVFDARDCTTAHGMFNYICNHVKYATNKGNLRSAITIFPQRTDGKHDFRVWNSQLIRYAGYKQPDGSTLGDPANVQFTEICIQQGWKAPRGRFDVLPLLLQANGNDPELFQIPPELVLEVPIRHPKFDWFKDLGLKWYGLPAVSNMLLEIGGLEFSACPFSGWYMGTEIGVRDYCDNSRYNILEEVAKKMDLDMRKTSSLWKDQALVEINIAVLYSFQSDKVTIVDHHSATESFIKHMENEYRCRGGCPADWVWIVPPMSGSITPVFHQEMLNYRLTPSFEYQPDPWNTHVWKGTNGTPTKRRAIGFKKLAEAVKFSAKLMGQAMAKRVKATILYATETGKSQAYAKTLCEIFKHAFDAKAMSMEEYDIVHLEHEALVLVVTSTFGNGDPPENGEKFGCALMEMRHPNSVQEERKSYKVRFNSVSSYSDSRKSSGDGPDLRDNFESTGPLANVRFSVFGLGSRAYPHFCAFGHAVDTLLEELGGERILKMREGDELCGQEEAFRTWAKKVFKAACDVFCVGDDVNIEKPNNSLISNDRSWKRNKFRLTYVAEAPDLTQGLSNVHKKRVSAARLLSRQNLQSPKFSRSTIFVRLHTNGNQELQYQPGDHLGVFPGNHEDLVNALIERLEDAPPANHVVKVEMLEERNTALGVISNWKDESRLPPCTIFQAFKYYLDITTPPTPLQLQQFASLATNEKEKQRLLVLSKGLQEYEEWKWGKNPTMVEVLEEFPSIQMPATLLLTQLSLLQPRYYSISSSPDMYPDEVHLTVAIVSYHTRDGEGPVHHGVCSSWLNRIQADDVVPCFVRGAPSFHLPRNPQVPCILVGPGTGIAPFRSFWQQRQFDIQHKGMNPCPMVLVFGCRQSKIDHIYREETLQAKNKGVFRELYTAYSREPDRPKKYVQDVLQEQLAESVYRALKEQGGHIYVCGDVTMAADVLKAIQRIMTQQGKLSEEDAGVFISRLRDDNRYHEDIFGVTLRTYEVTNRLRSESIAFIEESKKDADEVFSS
T5 sequence (P29476 1-720 limits assumed): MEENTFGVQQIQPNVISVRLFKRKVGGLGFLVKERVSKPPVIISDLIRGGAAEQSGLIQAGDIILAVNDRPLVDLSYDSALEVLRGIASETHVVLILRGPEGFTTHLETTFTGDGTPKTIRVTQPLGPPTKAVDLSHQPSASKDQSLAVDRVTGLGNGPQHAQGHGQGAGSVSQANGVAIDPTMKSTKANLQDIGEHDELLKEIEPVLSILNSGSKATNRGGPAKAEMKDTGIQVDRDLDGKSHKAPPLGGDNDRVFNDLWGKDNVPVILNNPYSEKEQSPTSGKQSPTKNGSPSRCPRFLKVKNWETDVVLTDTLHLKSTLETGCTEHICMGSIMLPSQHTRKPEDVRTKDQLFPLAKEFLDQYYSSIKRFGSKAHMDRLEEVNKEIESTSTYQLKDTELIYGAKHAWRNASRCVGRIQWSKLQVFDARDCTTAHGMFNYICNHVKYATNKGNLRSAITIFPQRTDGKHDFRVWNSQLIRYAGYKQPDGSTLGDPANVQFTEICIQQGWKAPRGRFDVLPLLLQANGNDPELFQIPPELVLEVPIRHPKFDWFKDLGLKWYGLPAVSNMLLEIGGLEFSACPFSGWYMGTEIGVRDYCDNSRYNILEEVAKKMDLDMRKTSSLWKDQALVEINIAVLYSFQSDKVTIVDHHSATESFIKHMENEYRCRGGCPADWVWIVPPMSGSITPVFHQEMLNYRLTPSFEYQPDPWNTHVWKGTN

## CCSC(=N)NCCC[C@H](N)C(=O)N[C@H]1CCCN(Cc2cccc(Br)c2)C1 [Compound 21]
Rat nNOS; dipeptide-like series
  IC50: 1 µM
Mouse iNOS [1]; dipeptide-like series
  IC50: 45.5 µM
Bovine eNOS; dipeptide-like series
  inhibition at 100 µM: < 50%
RAW 264.7 cells [2]; RAW 264.7, LPS 1 µg/mL
  Reversal of LPS-induced reduction of cell viability: none partially reversed the LPS effect
RAW 264.7 cells [2]; RAW 264.7, absence of LPS, up to 100 μM
  Effect on cell viability (MTT): did not modify cell viability
iNOS in RAW 264.7 cells
  inhibition at 100 µM: 80%

## CCSC(=N)NCCC[C@H](N)c1nc(CCN(Cc2ccccc2[N+](=O)[O-])Cc2ccccc2[N+](=O)[O-])no1 [Compound 40]
Rat nNOS; 1,2,4-oxadiazole series
  IC50: 61 µM
Mouse iNOS [1]; 1,2,4-oxadiazole series
  IC50: 2 µM
Mouse iNOS [3]
  Selectivity for iNOS toward eNOS: > 50 fold
  Selectivity for iNOS toward nNOS: 30 fold
Bovine eNOS; 1,2,4-oxadiazole series
  inhibition at 100 µM: < 50%

## N=C(NCCC[C@H](N)C(=O)N1C[C@H](N)C[C@H]1C(N)=O)N[N+](=O)[O-] [DP9, L-Nω-nitroarginine-(4R)-amino-L-prolinamide]
nNOS
  Selectivity in favor of nNOS over eNOS: 1000 fold
nNOS; read-out: Experimental Ki nNOS
  Ki: 0.1 µM
eNOS
  Ki: 110 µM

## CC(=N)NCCCC[C@H](N)C(=O)O [L-NIL]
RAW 264.7 cells [4]
  Reversal of LPS-induced reduction of cell viability: partially reversed the LPS effect

## CCSC(=N)N [SEITU, reference compound]
[5]
  Kd: 6.4 ± 1.5 µM
[6]
  Kd: 1.7 ± 0.1 µM
RAW 264.7 cells [4]
  Reversal of LPS-induced reduction of cell viability: partially reversed the LPS effect
